The values that follow are results of earlier work, collected in patent US6140354A, “N-substituted aminotetralins as ligands for the neuropeptide Y Y5 receptor useful in the treatment of obesity and other disorders” (Ortho-McNeil Pharmaceutical, Inc., priority 1999, dated 2000).

For series [1] the following is noted: icv or into the amygdala; cited from earlier work.
The conditions of series [2]: as little as one-billionth of a gram injected directly into the CNS; satiated rats; cited from earlier work.
The conditions of series [3]: animal models of learning; cited from earlier work.
The subject of series [4] is forskolin-stimulated cAMP production/levels in a neuroblastoma cell line. The note with it: cited from earlier work.

As to “Neuropeptide Y: single peptide protein that consists of thirty-six amino acids containing an amidated C-terminus”, the anxiolytic effects result in series [1] is recorded as “produces anxiolytic effects”. Besides, in series [2], the food intake result is listed as “causes satiated rats to overeat”. The “memory and performance scores” value in series [3] was “improves memory and performance scores”. Also, in series [4], the “forskolin-stimulated cAMP production/levels” value was “inhibits forskolin-stimulated cAMP production/levels”.
